Usually IC50 stands for the concentration that inhibits the measured activity by half.

The target in this test is T1, α4β7 (adhesion of RPMI cells to CS-1) (Homo sapiens, UniProt P13612+P26010).
T1 construct: endogenous in cells
T1 sequence (P13612 34-1032): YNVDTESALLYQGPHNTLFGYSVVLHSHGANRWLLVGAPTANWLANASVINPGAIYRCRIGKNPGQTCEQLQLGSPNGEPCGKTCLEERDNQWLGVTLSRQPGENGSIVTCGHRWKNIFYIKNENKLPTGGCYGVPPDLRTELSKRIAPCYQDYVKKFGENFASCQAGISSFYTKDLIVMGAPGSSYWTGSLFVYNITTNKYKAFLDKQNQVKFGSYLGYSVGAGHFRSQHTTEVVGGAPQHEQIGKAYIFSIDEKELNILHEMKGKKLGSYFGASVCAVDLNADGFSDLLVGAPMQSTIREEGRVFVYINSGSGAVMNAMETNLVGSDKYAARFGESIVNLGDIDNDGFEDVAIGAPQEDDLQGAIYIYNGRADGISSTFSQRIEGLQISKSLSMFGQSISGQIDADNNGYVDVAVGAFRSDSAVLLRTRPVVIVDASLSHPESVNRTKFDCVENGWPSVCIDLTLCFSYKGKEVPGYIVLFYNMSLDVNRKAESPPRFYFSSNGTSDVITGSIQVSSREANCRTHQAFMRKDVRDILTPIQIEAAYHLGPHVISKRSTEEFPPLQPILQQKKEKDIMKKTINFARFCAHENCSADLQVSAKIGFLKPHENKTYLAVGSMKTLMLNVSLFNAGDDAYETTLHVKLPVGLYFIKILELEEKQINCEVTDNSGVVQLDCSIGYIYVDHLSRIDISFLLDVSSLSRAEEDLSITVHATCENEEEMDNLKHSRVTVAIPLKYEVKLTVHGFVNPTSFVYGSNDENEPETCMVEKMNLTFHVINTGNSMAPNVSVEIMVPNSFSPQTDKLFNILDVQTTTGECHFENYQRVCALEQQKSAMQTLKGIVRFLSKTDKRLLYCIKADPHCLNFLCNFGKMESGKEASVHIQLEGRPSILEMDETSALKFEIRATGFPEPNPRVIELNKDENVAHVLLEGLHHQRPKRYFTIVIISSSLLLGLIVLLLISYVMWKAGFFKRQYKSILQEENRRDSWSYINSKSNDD
T1 sequence (P26010 20-798): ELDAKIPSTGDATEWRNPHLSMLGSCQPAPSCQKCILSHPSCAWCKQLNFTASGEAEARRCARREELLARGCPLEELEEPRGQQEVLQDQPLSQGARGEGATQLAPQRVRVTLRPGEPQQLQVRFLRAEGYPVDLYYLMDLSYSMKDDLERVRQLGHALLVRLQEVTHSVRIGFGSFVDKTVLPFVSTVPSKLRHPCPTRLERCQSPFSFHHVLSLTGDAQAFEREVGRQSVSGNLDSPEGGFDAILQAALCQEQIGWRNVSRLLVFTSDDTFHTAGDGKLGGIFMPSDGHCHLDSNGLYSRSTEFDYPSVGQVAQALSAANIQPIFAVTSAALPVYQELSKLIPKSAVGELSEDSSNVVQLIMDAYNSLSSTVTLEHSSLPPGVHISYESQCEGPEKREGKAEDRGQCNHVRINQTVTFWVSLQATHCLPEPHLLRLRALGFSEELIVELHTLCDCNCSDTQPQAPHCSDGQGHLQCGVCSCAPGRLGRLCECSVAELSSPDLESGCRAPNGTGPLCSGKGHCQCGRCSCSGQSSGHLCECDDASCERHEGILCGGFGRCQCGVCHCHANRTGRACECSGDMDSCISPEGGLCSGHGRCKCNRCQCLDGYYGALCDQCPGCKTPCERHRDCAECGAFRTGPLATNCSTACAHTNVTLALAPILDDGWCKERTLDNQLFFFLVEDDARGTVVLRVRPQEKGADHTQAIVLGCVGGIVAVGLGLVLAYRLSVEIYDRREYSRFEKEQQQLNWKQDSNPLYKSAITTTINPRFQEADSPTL
Description: RPMI-CS-1 cell adhesion assay. Type of test: cell-based. To be noted: adhesion of RPMI B-cell line (expresses α4β7) to CS-1 peptide coated microwells; read-out: RPMI-CS-1 IC50 value range.
Turning to `C[S+]([O-])c1ccccc1-c1ccc(C[C@H](NC(=O)c2c(Cl)cccc2Cl)C(=O)O)cc1` (single isomer, unassigned) [Example 152C, N-(2,6-dichloro-benzoyl)-4-[2-(methylsulfinyl)phenyl]-L-phenylalanine], the half-maximal inhibitory concentration (IC50) lay within 300 to 1000 nM. In the case of `COc1ccccc1-c1ccc(C[C@H](NC(=O)c2c(Cl)cccc2Cl)C(=O)O)cc1NC(C)=O` [Example 80] it was less than 300 nM; in that of `COc1cc(OCc2ccccc2)cc(OC)c1-c1ccc(C[C@H](NC(=O)c2c(Cl)cccc2Cl)C(=O)O)cc1` [Example 350], less than 300 nM.

For `CCCCOc1ccccc1-c1ccc(C[C@H](NC(=O)c2c(Cl)cccc2Cl)C(=O)O)cc1` [Example 34], the 50% inhibitory concentration (IC50) is 1000 to 5000 nM. `COC(=O)[C@H](Cc1ccc(-c2ccccc2OCC#N)cc1)NC(=O)c1c(Cl)cccc1Cl` [Example 33, N-(2,6-Dichlorobenzoyl)-4-[2-(cyanomethoxy)phenyl]-L-phenylalanine methyl ester]: the IC50 is 300 to 1000 nM. Then `COc1ccccc1-c1ccc(C[C@H](NC(=O)c2ccc(NS(=O)(=O)c3ccc(C)cc3)cc2Cl)C(=O)O)cc1` [Example 188, N-[2-Chloro-4-(tosylamino)benzoyl]-4-(2-methoxyphenyl)-L-phenylalanine], with less than 300 nM; and `CCOc1ccc2c(c1-c1ccc(C[C@H](NC(=O)c3c(Cl)cccc3Cl)C(=O)O)cc1)OCO2` [Example 237, N-(2,6-Dichlorobenzoyl)-4-(2,3-methylenedioxy-6-ethoxyphenyl)-L-phenylalanine], with less than 300 nM; and `Cc1ccccc1-c1ccc(C[C@H](NC(=O)c2c(Cl)cccc2Cl)C(=O)O)cc1` [Example 112], with 300 to 1000 nM. Consider `O=C(N[C@@H](Cc1ccc(-c2c(Cl)cccc2Cl)cc1)C(=O)O)c1c(Cl)cccc1Cl` [Example 141], for which the concentration for half-maximal inhibition (IC50) was 300 to 1000 nM. Turning to `CN(C)S(=O)(=O)c1ccccc1-c1ccc(C[C@H](NC(=O)c2c(Cl)cccc2Cl)C(=O)O)cc1` [Example 21, N-(2,6-Dichlorobenzoyl)-4-[2-(N,N-dimethylsulfamoyl)phenyl]-L-phenylalanine], the IC50 was less than 300 nM.

Regarding `COc1ccc(-c2ccc(C[C@H](NC(=O)c3ccc(C(=O)O)cc3)C(=O)O)cc2)cc1` [Example 76], the half-maximal inhibitory concentration (IC50) is more than 5000 nM.

Consider `COc1ccccc1-c1ccc(C[C@H](NC(=O)c2ccc(Cl)cc2Cl)C(=O)O)cc1` [Example 84], for which the IC50 is 1000 to 5000 nM. In the case of `COc1c(F)cc2c(c1-c1ccc(C[C@H](NC(=O)c3c(Cl)cccc3Cl)C(=O)O)cc1)OCO2` [Example 154, N-(2,6-Dichlorobenzoyl)-4-(2,3-methylenedioxy-5-fluoro-6-methoxyphenyl)-L-phenylalanine], the IC50 is less than 300 nM. `O=C(N[C@@H](Cc1ccc(-c2ccsc2)cc1)C(=O)O)c1c(Cl)cccc1Cl` [Example 128]: the IC50 was in the range of 300 to 1000 nM.

Take `COc1ccccc1-c1ccc(C[C@H](NC(=O)c2ccc(C(=O)OC(C)(C)C)cc2Cl)C(=O)O)cc1` [Example 176, N-[2-Chloro-4-(tert-butoxycarbonyl)benzoyl]-4-(2-methoxyphenyl)-L-phenylalanine]: the 50% inhibitory concentration (IC50) was in the range of 300 to 1000 nM.

For `COc1ccccc1-c1ccc(C[C@H](NC(=O)c2ccccc2Br)C(=O)O)cc1` [Example 96], the concentration for half-maximal inhibition (IC50) was 300 to 1000 nM. With `COc1ccccc1-c1ccc(C[C@H](NC(=O)c2c(Cl)cccc2Cl)C(=O)O)cc1C(C)O` (stereo partly drawn) [Example 73, N-(2,6-Dichlorobenzoyl)-3-(1-hydroxyethyl)-4-(2-methoxyphenyl)-L-phenylalanine], the IC50 was less than 300 nM.

As to `COc1ccccc1-c1ccc(C[C@H](NC(=O)c2ccc(NC(N)=O)cc2Cl)C(=O)O)cc1` [Example 69, N-(2-Chloro-4-ureidobenzoyl)-4-(2-methoxyphenyl)-L-phenylalanine], the IC50 was less than 300 nM. As for `COc1ccc2c(c1-c1ccc(C[C@H](NC(=O)c3c(Cl)cccc3Cl)C(=O)O)cc1)OCO2` [Example 240, N-(2,6-Dichlorobenzoyl)-4-(2,3-methylenedioxy-6-methoxyphenyl)-L-phenylalanine], the 50% inhibitory concentration (IC50) is less than 300 nM.

In the case of `O=Cc1ccccc1-c1ccc(C[C@H](NC(=O)c2c(Cl)cccc2Cl)C(=O)O)cc1` [Example 45, N-(2,6-Dichlorobenzoyl)-4-(2-formylphenyl)-L-phenylalanine], the 50% inhibitory concentration (IC50) was less than 300 nM. `COc1ccccc1-c1ccc(C[C@H](NC(=O)c2ccc(O)cc2Cl)C(=O)O)cc1` [Example 209]: the 50% inhibitory concentration (IC50) was less than 300 nM. Consider `CCCCNC(=O)c1ccccc1-c1ccc(C[C@H](NC(=O)c2c(Cl)cccc2Cl)C(=O)O)cc1` [Example 55, N-(2,6-Dichlorobenzoyl)-4-[2-(N-n-butylcarbamoyl)phenyl]-L-phenylalanine], for which the concentration for half-maximal inhibition (IC50) lay within 1000 to 5000 nM. For the compound `NC(=O)c1ccccc1-c1ccc(C[C@H](NC(=O)c2c(Cl)cccc2Cl)C(=O)O)cc1` [Example 60], the concentration for half-maximal inhibition (IC50) is 300 to 1000 nM. On to `O=C(N[C@@H](Cc1ccc(-c2c(F)cccc2F)cc1)C(=O)O)c1c(Cl)cccc1Cl` [Example 135, N-(2,6-Dichlorobenzoyl)-4-(2,6-difluorophenyl)-L-phenylalanine], for which the half-maximal inhibitory concentration (IC50) was less than 300 nM. In the case of `COc1cccc(OC)c1-c1ccc(C[C@H](NC(=O)c2cccc(C)c2)C(=O)O)cc1` [Example 281] it was 1000 to 5000 nM.

Consider `COC(=O)[C@H](Cc1ccc(-c2ccccc2OC)cc1)NC(=O)c1c(Cl)cccc1Cl` [Example 1A, N-(2,6-Dichlorobenzoyl)-4-(2-methoxyphenyl)-L-phenylalanine methyl ester], for which the half-inhibitory concentration (IC50) lay in the range of 300 to 1000 nM. For `COc1cc(CN2CCN(Cc3ccccc3)CC2)cc(OC)c1-c1ccc(C[C@H](NC(=O)c2c(Cl)cccc2Cl)C(=O)O)cc1` [Example 258, N-(2,6-Dichlorobenzoyl)-4-[2,6-dimethoxy-4-[(4-benzyl-1-piperazinyl)methyl]phenyl]-L-phenylalanine], the IC50 was less than 300 nM. With `COc1cccc(OC)c1-c1ccc(C[C@H](NC(=O)c2c(Cl)cc(-c3cccs3)cc2Cl)C(=O)O)cc1` [Example 316], the half-maximal inhibitory concentration (IC50) is less than 300 nM.

For the compound `COc1cc(CN2CCN(C)CC2)cc(OC)c1-c1ccc(C[C@H](NC(=O)c2c(Cl)cccc2Cl)C(=O)O)cc1` [Example 248], the half-maximal inhibitory concentration (IC50) is less than 300 nM.

For `O=C(N[C@@H](Cc1ccc(-c2ccccc2CNc2ccccc2)cc1)C(=O)O)c1c(Cl)cccc1Cl` [Example 46, N-(2,6-Dichlorobenzoyl)-4-[2-[(phenylamino)methyl]phenyl]-L-phenylalanine], the concentration for half-maximal inhibition (IC50) is less than 300 nM. In the case of `COc1ccccc1-c1ccc(C[C@H](NC(=O)c2ccc(N)cc2Cl)C(=O)O)cc1` [Example 63, N-(4-Amino-2-chlorobenzoyl)-4-(2-methoxyphenyl)-L-phenylalanine] it was 300 to 1000 nM; in that of `COC(=O)[C@H](Cc1ccc(-c2cccs2)cc1)NC(=O)c1c(Cl)cccc1Cl` [Example 4A, N-(2,6-Dichlorobenzoyl)-4-(2-thienyl)-L-phenylalanine methyl ester], 1000 to 5000 nM; in that of `CN1CCCC(COc2ccccc2-c2ccc(C[C@H](NC(=O)c3c(Cl)cccc3Cl)C(=O)O)cc2)C1` (stereo partly shown) [Example 44], 300 to 1000 nM. On to `COc1ccccc1-c1ccc(C[C@H](NC(=O)c2ccc(NS(=O)(=O)c3ccccc3C)cc2Cl)C(=O)O)cc1` [Example 192, N-[2-Chloro-4-[[(2-methylphenyl)sulfonyl]amino]benzoyl]-4-(2-methoxyphenyl)-L-phenylalanine], for which the 50% inhibitory concentration (IC50) was less than 300 nM.
